Data on two compounds can be found in patent US5498632A, “Esters of acyl carnitines with long-chain aliphatic alcohols and pharmaceutical compositions containing same having antibacterial activity” (Sigma-Tau Industrie Farmaceutiche Riunite S.p.A., priority 1992, dated 1996).

Data set [1] deals with Enterobacter aerogenes (UM). Nature of the data set: MIC in broth, Gram- strains. In kind it is cell-based. The settings on record: Klebsiella aerogenes, 18 h, read-out: Minimal Inhibitory Concentration (MIC). The method, boiled down:
(§1)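 Broth microdilution with serial two-fold dilutions in Mueller-Hinton broth. Inoculum from overnight culture matched to 0.5 McFarland and adjusted to 5.0×10^4 CFU/ml final; plates incubated 18 h at 37 °C in humidified conditions.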

Data set [2] has as its system Salmonella typhimurium (D.S.). The experiment in a line: MIC in broth, Gram- strains. In kind it is cell-based. The settings on record: Salmonella enterica, 18 h, read-out: Minimal Inhibitory Concentration (MIC). The method, boiled down:
as §1

Data set [3] concerns Klebsiella pneumoniae (7823). Nature of the data set: MIC in broth, Gram- strains. In kind it is cell-based. The following applies: 18 h, read-out: Minimal Inhibitory Concentration (MIC). The method, boiled down:
as §1

Data set [4] has as its system Serratia marcescens (A/1). The experiment in a line: MIC in broth, Gram- strains. In kind it is cell-based. The settings on record: 18 h, read-out: Minimal Inhibitory Concentration (MIC). In short, it runs like this:
as §1

The subject of a further data set is Klebsiella oxytoca (552). Nature of the data set: MIC in broth, Gram- strains. In kind it is cell-based. The settings on record: 18 h, read-out: Minimal Inhibitory Concentration (MIC). The method, boiled down:
as §1

A further data set has as its system Escherichia coli (92 F). Nature of the data set: MIC in broth, Gram- strains. The following applies: 18 h, E. coli (92 F), read-out: Minimal Inhibitory Concentration (MIC). Format: cell-based. In short, it runs like this:
as §1

The subject of a further data set is Proteus mirabilis (32). The experiment in a line: MIC in broth, Gram- strains. The following applies: 18 h, read-out: Minimal Inhibitory Concentration (MIC). In kind it is cell-based. In short, it runs like this:
as §1

Another data set concerns Escherichia coli (76 F). Nature of the data set: MIC in broth, Gram- strains. In kind it is cell-based. The following applies: 18 h, E. coli (76 F), read-out: Minimal Inhibitory Concentration (MIC). In short, it runs like this: as §1
Data set [5] has as its system Pseudomonas aeruginosa (10 E). The experiment in a line: MIC in broth, Gram- strains. Format: cell-based. The following applies: 18 h, read-out: Minimal Inhibitory Concentration (MIC). The method, boiled down:
as §1

In the next data set the test system is Proteus vulgaris (UM). The experiment in a line: MIC in broth, Gram- strains. In kind it is cell-based. The settings on record: 18 h, read-out: Minimal Inhibitory Concentration (MIC). The method, boiled down: as §1
Data set [6] relates to Pseudomonas aeruginosa (3 E). The experiment in a line: MIC in broth, Gram- strains. In kind it is cell-based. The settings on record: 18 h, read-out: Minimal Inhibitory Concentration (MIC). The method, boiled down:
as §1

Data set [7] has as its system Helicobacter pylori NCTC 11637. Nature of the data set: MIC in agar (agar dilution). Format: cell-based. The method, then: (§2) In this experiment the activity of ST 722 and ST 712 against Campylobacter and Helicobacter was investigated.
(§3) Campylobacter fetus ATCC 27374, Campylobacter coli LI 048, Campylobacter jejuni 84-ISS, and Helicobacter pylori NCTC 11637.
(§4) The culture medium was Columbia agar base supplemented with 7% (V/V) defribinated horse blood (DHB) for Campylobacter strains, and the same medium additioned with Vitox (Oxoid) for Helicobacter strain.
(§5) The Campylobacter and Helicobacter strains, preserved at -80° C. in DHB containing 10% (V/V) glycerol, were thawed and grown, in their respective culture medium, in culture flasks, which were incubated for 48 hours at 37° C. in a 10% CO2 atmosphere. After this first growth cycle, the bacteria were allowed to go through a second growth cycle in the same conditions as above.
The bacterial "patina" was then harvested by resuspension in 4-5 ml of Mueller-Hinton broth, the turbidity of which was then assessed according to Mc Farland's criteria (BRAY W. E., Clinical Laboratory Methods, 5th Ed. C. V. MOSBY, St. Louis, Mo. 1957). […]
(§6) With a Steers-type multipoint inoculator (STEERS E., FOLTZ E. L., GRAVES S., RIDEN J., 1959. Inocula-replicating apparatus for routine testing of antibacterial susceptibility to antibiotics. Antibiot. Chemoter. 9: 307-311) 1-μl volumes of the above standardized suspensions were spot-transferred into the wells of a 96-well microtiter plate, which had previously been filled with 0.2 ml/well of Mueller-Hinton agar 5% DHB, containing the test substances at different concentrations.
(§7) The plates was then incubated for 48/72 hours at 37° C. in a 10% CO2 atmosphere.
In general terms: Agar dilution tests growth on a series of plates holding different concentrations.

The next data set concerns Gram- bacterial strains. Nature of the data set: Mean MIC in broth and resistant strain number, Gram- strains. In kind it is cell-based. The following applies: 18 h, read-out: Mean MIC values. In short, it runs like this:
as §1

Data set [8] concerns Campylobacter fetus ATCC 27374. Nature of the data set: MIC in agar (agar dilution). Format: cell-based. As for the experimental part: as §2, §3, §4, §5
(§8) The bacterial "patina" was then harvested by resuspension in 4-5 ml of Mueller-Hinton broth, the turbidity of which was then assessed according to Mc Farland's criteria (BRAY W. E., Clinical Laboratory Methods, 5th Ed. C. V. MOSBY, St. Louis, Mo. 1957).
(§9) The Helicobacter suspension was adjusted to an approximate concentration of 1.0×10^9 and 1.0×10^8 organisms/ml, while the Campylobacter suspension was adjusted to 1.0×10^7 and 1.0×10^6 organisms/ml.
as §6, §7

In data set [9] the test system is Campylobacter jejuni 84-ISS. The experiment in a line: MIC in agar (agar dilution). In kind it is cell-based. As for the experimental part: as §2, §3, §4, §5, §8, §9, §6, §7
The test system of data set [10] is Campylobacter coli LI 048. Nature of the data set: MIC in agar (agar dilution). In kind it is cell-based. The method, then:
as §2, §3, §4, §5, §8, §9, §6, §7

A further data set relates to mice. The experiment in a line: Assessment of behaviour and mortality in mice (Irwin's method). Also noted: species or system mouse (male Crl:(CD-1)(ICR)BR). The following applies: mouse, in vivo, po. As for the experimental part: (§10) The assessment of normal behaviour in mice was carried out following S. Irwin's method (Psychopharmacologia, 13, 222 [1968]). This method allows alterations in some behavioural, neurophysiologic and neurovegetative parameters to be detected, which are directly observable by the researcher. The study was conducted using male Crl:(CD-1)(ICR)BR mice (Charles River--Italy) weighing 22-25 g, following oral administration of the compounds suspended in carboxymethylcellulose (0.5% by weight in H2 O) to groups of 4 animals/dose.
(§11) The animals were continously kept under observation for five hours following treatment and twice a day in the subsequent five days. Mortality was also observed during the overall test period.

Experiment in data set [11]: as above
The settings on record: mouse, in vivo; oral, dose 1000, 4 animals/dose. Also noted: species or system mouse (male Crl:(CD-1)(ICR)BR). As for the experimental part:
as §10, §11

For data set [12], the system named is 4 Gram- bacterial strains. The experiment in a line: Agar diffusion test of undecyl alcohol. In kind it is cell-based. The following applies: absolute (0.05 ml). As for the experimental part: (§12) To ascertain whether the antimicrobial activity was due to the undecyl alcohol (a possible product from the hydrolysis of the undecyl esters, such as e.g. ST 722 and ST 712), different "in vitro" tests were performed to overcome the difficulties stemming from the insolubility of the undecyl alcohol in the assay medium.
(§13) To circumvent this problem, three different experimental approaches were chosen obtaining the following results:
2) Undecyl alcohol absolute (0.05 ml) in agar seeded with 4 Gram- bacterial strains (Agar diffusion test).

The test system of data set [13] is 7 Gram- bacterial strains. Nature of the data set: Agar dilution test of undecyl alcohol. Format: cell-based. The settings on record: emulsified in Tween 80, up to 300 mcg/ml. The method, then: as §12, §13
1) Undecyl alcohol emulsified in Tween 80 and tested up to the concentration of 300 mcg/ml in agar seeded with 7 Gram- bacterial strains (Agar dilution test).

Data set [14] relates to 4 Gram- bacterial strains and 1 Gram+ bacterial strain. The experiment in a line: Broth dilution test of undecyl alcohol. Format: cell-based. The following applies: emulsified in Tween 80, up to 400 mcg/ml. As for the experimental part:
as §12, §13
3) Undecyl alcohol emulsified in Tween 80 and tested up to the concentration of 400 mcg/ml in broth seeded with 4 Gram- bacterial strains and 1 Gram+ bacterial strain (Broth dilution test).
On the technique in general: Dilution methods test growth across graded concentrations, often in twofold steps.

In the case of `CCCCCCCCCCCOC(=O)CC(C[N+](C)(C)C)OC(=O)C(C)C` [ST 712, Isobutyryl-L-Carnitine Undecyl Ester Chloride], the MIC in [1] came to 25 mg/L; in [2], 25 mg/L; in data set [3], 12.5 mg/L; in data set [4], 50 mg/L; in the data set with Klebsiella oxytoca (552) it was 12.5 mg/L; in the data set with Escherichia coli (92 F) it was 25 mg/L. Moreover, the MIC in the data set on Proteus mirabilis (32) was above 100 mg/L; with Escherichia coli (76 F) it was 25 mg/L; in data set [5] it was 50 mg/L; in the data set with Proteus vulgaris (UM), 100 mg/L; in data set [6], 50 mg/L; in data set [7] (Helicobacter pylori, NCTC11637, I = inoculum of 1.0 × 10^5 cells/ml, read-out: MIC in agar), 3.12 mg/L. Besides, the MIC with Gram- bacterial strains was 36.4 mg/L; in data set [8] (Campylobacter fetus, ATCC27374, I = inoculum of 1.0 × 10^3), 100 mg/L; in [9] (I = inoculum of 1.0 × 10^3), 25 mg/L; in data set [9] (II = inoculum of 1.0 × 10^4), 50 mg/L; in data set [10] (Campylobacter coli, LI048, I = inoculum of 1.0 × 10^3), 6.25 mg/L. The MIC in agar in data set [7] (II = inoculum of 1.0 × 10^6 cells/ml) is 3.12 mg/L; in data set [8] (II = inoculum of 1.0 × 10^4) it was 100 mg/L; in [10] (II = inoculum of 1.0 × 10^4), 6.25 mg/L. Moreover, the “antibacterial activity for Helicobacter and Campylobacter” value in data set [7] (agar, Helicobacter and Campylobacter strains) is “possess an antibacterial activity”. Besides, in the data set with mice, the Symptoms result is recorded as “NONE”. In data set [11], the mortality – broadly, the share of the test organisms that died – at 120 h was 0%.
As for `CCCCCCCCCCCO` [Undecyl alcohol, undecyl alcohol], the antibacterial activity result in data set [12], in data set [13] and in [14] was “no activity” in each case.
